Test results reported in US7465842B2, “Enantioselective biotransformation for preparation of protein tyrosine kinase inhibitor intermediates” (Agouron Pharmaceuticals, Inc., priority 2004, dated 2008).

Key:
[1] = Solubility of the precursor in water; format: physicochemical
[2] = Enzyme screening: stereoselective hydrolysis (kinetic resolution) of racemic 1-(2,6-dichloro-3-fluorophenyl)ethyl acetate; format: biochemical; details: selective for hydrolysis of (S)-acetate; 5% substrate load, 100 mM potassium phosphate buffer pH 7.2
Experimental: For example, for stereoselective hydrolysis of esters by biocatalysts, a program (Ee2 software-University of Graz) can accurately calculate the E value if the enantiomeric excess (ee) of either the alcohol or the ester at one particular enzymatic conversion are known. The ee value can be obtained, for example, from Equation 1. The [S] and [R] data can be obtained, for example, by HPLC.
The resolution of 1-(2,6-dichloro-3-fluorophenyl)ethyl acetate was carried out as follows. A 96-well plate prepared as described above was thawed for 5 minutes. 80 μL of potassium phosphate buffer (0.1 M, pH 7.2) was then dispensed into the wells using a multi-channel pipette. 10 μL of the substrate stock solution (50 mg/mL acetonitrile) was then added to each well via a multi-channel pipette, and the 96 reactions were incubated at 30° C. and 750 rpm. The reactions were sampled after 16 hours by the transfer of 25 μL of the reaction mixture into a new 96-well plate, which was then quenched by the addition of 150 μL of acetonitrile. The 96-well plate was then centrifuged, and the organic supernatant transferred from each well into another 96-well plate. Sampled reactions were then sealed using a penetrable mat cover and transferred to an HPLC system for analysis. The same plate was used to analyze the samples for both reactivity and enantioselectivity using alternating columns on the HPLC simultaneously. […]

| Molecule | solubility [1] [µg/mL] | Reactivity [2] |
| --- | --- | --- |
| CC(=O)c1c(Cl)ccc(F)c1Cl [precursor, 1-(2,6-dichloro-3-fluorophenyl)ethanone] | < 2500 |  |
| Subtilisin Carlsberg (protease from Bacillus licheniformis): commercially available hydrolase of the enzyme screening kit (protein, UniProt P00780 106-379, looked up) Subtilisin Carlsberg: AQTVPYGIPLIKADKVQAQGFKGANVKVAVLDTGIQASHPDLNVVGGASFVAGEAYNTDGNGHGTHVAGTVAALDNTTGVLGVAPSVSLYAVKVLNSSGSGSYSGIVSGIEWATTNGMDVINMSLGGASGSTAMKQAVDNAYAKGVVVVAAAGNSGSSGNTNTIGYPAKYDSVIAVGAVDSNSNRASFSSVGAELEVMAPGAGVYSTYPTNTYATLNGTSMASPHVAGAAALILSKHPNLSASQVRNRLSSTATYLGSSFYYGKGLINVEAAAQ |  | Low |
